Test: Henry solubility constant Hcp at 313 K (mol/(m3 Pa))
Settings: reference: Du et al. (2017)

| Henry solubility constant Hcp at 313 K | SMILES |
| --- | --- |
| 43 | Cc1nccn1C [1,2-dimethylimidazole] |
| 69 | Cn1ccnc1 [1-methyl-1H-imidazole] |
| 710 | CCC(N)(CO)CO [2-amino-2-ethyl-1,3-propanediol] |
| 760 | CCc1ncc[nH]1 [2-ethylimidazole] |
| 110 | COCCNCCOC [bis(2-methoxyethyl)amine] |
| 830 | CN(C)CCOCCO [dimethylaminoethoxyethanol] |

More lines, now with the values behind:

| SMILES | Henry solubility constant Hcp at 313 K |
| --- | --- |
| OCCN1CCCCC1 [1-(2-hydroxyethyl)piperidine] | 51 |
| CCN(CC)CCO [2-(diethylamino)ethanol] | 5.9 |
| CC(C)NCCO [2-(isopropylamino)ethanol] | 110 |
| CC(C)(N)CO [2-amino-2-methyl-1-propanol] | 210 |
| CCc1ncc(C)[nH]1 [2-ethyl-4-methylimidazole] | 280 |
| Cc1ncc[nH]1 [2-methyl-1H-imidazole] | 810 |
| OCCC1CCCCN1 (stereo not given) [2-piperidineethanol] | 390 |
| NCc1cccnc1 [3-(aminomethyl)pyridine] | 430 |
| CCN(CC)CC(O)CO (stereo not given) [3-(diethylamino)-1,2-propanediol] | 540 |
| CN(C)CC(O)CO (stereo not given) [3-(dimethylamino)-1,2-propanediol] | 670 |
| COCCCN [3-methoxy-1-propanamine] | 21 |
| CN1CCC(O)CC1 [4-hydroxy-N-methylpiperidine] | 1300 |
| CN(CCO)CCO [N-methyldiethanolamine] | 3300 |
| CN1C2CCC1CC(O)C2 (stereo not given) [tropine] | 1300 |

Reference: Sander's compilation of Henry's law constants (doi:10.1016/j.ijggc.2017.01.001)
